The target of one assay is T1, human CXCR4 (Homo sapiens, UniProt P61073).
T1 construct: expressed in transfected cells; host or cells: HEK293 cells (membranes)
The assay can be described thus: Inhibition of 125I-CXCL12 radioligand binding, membranes of human CXCR4-transfected HEK293 cells. Conditions: 0.16 nM 125I-CXCL12, 60 min at 30 °C, read-out: concentration required to inhibit binding of 125I-CXCL12 to CXCR4 by 50% (IC50). How it is done: Binding competition between the compounds of Formula (I) and human CXCL12 was assessed using a radioligand binding assay as described below.
Membranes (2-4 μg) prepared from human CXCR4-transfected HEK293 cells in 40 μL of assay buffer (50 mM HEPES-NaOH, pH 7.4, 100 mM NaCl, 5 mM MgCl2, 1 mM CaCl2, 0.5% bovine serum albumin) were incubated with 20 μL of radio-labeled ^125I-CXCL12 (0.16 nM) and 20 μL of a test compound in an assay plate (Costar Corning, Cambridge, Mass.). After 60 minutes at 30° C., the incubation was terminated by transferring the resulting reaction mixture to a 96-well GF/B filter plate (Millipore Corp., Billerica, Mass.) and filtered via a manifold. The plate was washed with 100 μL of ice-cold wash buffer (50 mM HEPES-NaOH, pH 7.4, 100 mM NaCl) four times. The radioactivity bound to the filter was measured by Topcount (PerkinElmer Inc., Waltham, Mass.).

The subject of assay [1] is T-cell acute lymphoblastic leukemia (CCRF-CEM) cells. The assay can be described thus: Inhibition of CXCL12-induced chemotaxis in lymphoblastic leukemia cells. Conditions: Homo sapiens, CXCL12 10 nM, 2.5 h at 37 °C, read-out: concentration required to inhibit chemotaxis by 50% (EC50). It counts as cell-based. How it is done:
The response of cancer cells to compounds of Formula (I) was evaluated using the chemotaxis assay as set forth below.
T-cell acute lymphoblastic leukemia (CCRF-CEM) cells in Roswell Park Memorial Institute medium (RPMI) 1640 supplemented with 10% […] were incubated with 250 μL of a test compound. The assay was performed using Millicell Hanging Cell Culture Inserts (pore size 5 μm; 24-well plate; Millipore, Bedford, Mass., USA). After 10 minutes at 37° C., 250 μL of cells pre-incubated with a test compound were plated per well in the upper chambers of the inserts at a density of 2.5×10^5 cells/well. 300 μL/well medium containing CXCL12 (10 nM) and a test compound were plated in the lower chamber of the insert. After 2.5 h at 37° C., cells in both chambers of inserts were measured by flow cytometry (Guava Technologies, Hayward, Calif., USA).

Some results are limits rather than exact numbers.

The results in this text go back to patent US10882854B2, “Heterocyclic compounds and use thereof” (National Health Research Institutes, priority 2017, dated 2021).

T1 sequence (P61073 whole entry): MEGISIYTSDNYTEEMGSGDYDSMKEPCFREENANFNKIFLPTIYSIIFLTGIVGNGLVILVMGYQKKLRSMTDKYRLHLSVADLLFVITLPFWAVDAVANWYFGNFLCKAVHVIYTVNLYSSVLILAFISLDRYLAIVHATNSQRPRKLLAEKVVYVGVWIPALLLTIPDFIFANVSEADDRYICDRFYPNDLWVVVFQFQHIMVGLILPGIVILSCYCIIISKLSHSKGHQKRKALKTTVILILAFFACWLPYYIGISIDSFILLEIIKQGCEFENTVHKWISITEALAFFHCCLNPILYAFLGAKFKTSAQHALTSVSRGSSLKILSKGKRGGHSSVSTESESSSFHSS

Consider `c1ccc2c(NC3CCNCC3)nc(NCc3cc(CCCNCCCNC4CCCCC4)on3)nc2c1` [Compound 1], for which the IC50 at human CXCR4 was less than 50 nM. Besides, the EC50 in assay [1] is less than 50 nM.

Regarding `c1ccc2c(NC3CCNCC3)nc(NCc3coc(CCCNCCCNC4CCCCC4)n3)nc2c1` [Compound 2], the IC50 on human CXCR4 was less than 50 nM. Besides, in assay [1], the EC50 is less than 50 nM.

With `c1ccc2c(NC3CCNCC3)nc(NCc3nc(CCCNCCCNC4CCCCC4)cs3)nc2c1` [Compound 3], at human CXCR4, the IC50 was less than 50 nM. Further, the EC50 in assay [1] is less than 50 nM.

For `c1ccc2c(NC3CCNCC3)nc(NCc3nnc(CCCNCCCNC4CCCCC4)o3)nc2c1` [Compound 6], the IC50 on human CXCR4 was less than 50 nM. Moreover, the EC50 in assay [1] is less than 50 nM.

For the molecule `c1ccc2c(NC3CCNCC3)nc(NCc3nnc(CCCNCCCNC4CCCCC4)s3)nc2c1` [Compound 7], the IC50 at human CXCR4 was less than 50 nM. Also, the EC50 in assay [1] was less than 50 nM.

For the molecule `c1ccc2c(NC3CCNCC3)nc(NCCc3cn(CCCCNCCCNC4CCCCC4)cn3)nc2c1` [Compound 8], the IC50 at human CXCR4 was 50 to 100 nM. For the same molecule, in assay [1], the EC50 is less than 50 nM.

Consider `c1ccc2c(NC3CCNCC3)nc(NCc3nnnn3CCCNCCCNC3CCCCC3)nc2c1` [Compound 14], for which the IC50 on human CXCR4 lay in the range of 50 to 100 nM. Also, the EC50 in assay [1] is less than 50 nM.

Regarding `Cc1cc(NC2CCNCC2)nc(NCc2cc(CCCNCCCNC3CCCCC3)on2)n1` [Compound 15], the IC50 on human CXCR4 is less than 50 nM. The EC50 in assay [1] is less than 50 nM.

Turning to `Cc1cc(NC2CCNCC2)nc(NCc2coc(CCCNCCCNC3CCCCC3)n2)n1` [Compound 16], the IC50 on human CXCR4 is less than 50 nM. For the same molecule, the EC50 in assay [1] was less than 50 nM.

As for `Cc1cc(NC2CCNCC2)nc(NCc2nc(CCCNCCCNC3CCCCC3)cs2)n1` [Compound 17], at human CXCR4, the IC50 is less than 50 nM. Further, the EC50 in assay [1] is less than 50 nM.

On to `Cc1cc(NC2CCNCC2)nc(NCc2nc(CCCNCCCNC3CCCCC3)co2)n1` [Compound 18], for which the IC50 at human CXCR4 was less than 50 nM. The EC50 in assay [1] is less than 50 nM.

Take `Cc1cc(NC2CCNCC2)nc(NCc2nnc(CCCNCCCNC3CCCCC3)o2)n1` [Compound 20]: the IC50 on human CXCR4 lay within 50 to 100 nM. For the same molecule, the EC50 in assay [1] is less than 50 nM.

Consider `Cc1cc(NC2CCNCC2)nc(NCc2nnc(CCCNCCCNC3CCCCC3)s2)n1` [Compound 21], for which the IC50 on human CXCR4 is less than 50 nM. Also, the EC50 in assay [1] is less than 50 nM.

`Cc1cc(NC2CCNCC2)nc(NCCc2cn(CCCCNCCCNC3CCCCC3)cn2)n1` [Compound 22]: at human CXCR4, the IC50 was 50 to 100 nM. In assay [1], the EC50 is less than 50 nM.

In the case of `Cc1cc(NC2CCNCC2)nc(NCc2nnn(CCCNCCCNC3CCCCC3)n2)n1` [Compound 23], the IC50 on human CXCR4 is less than 50 nM. Moreover, the EC50 in assay [1] was less than 50 nM.

`Cc1cc(NC2CCNCC2)nc(NCc2nnc(CCCNCCCNC3CCCCC3)[nH]2)n1` [Compound 24]: the IC50 at human CXCR4 lay in the range of 50 to 100 nM. Further, the EC50 in assay [1] is less than 50 nM.

Consider `CCc1cc(NC2CCNCC2)nc(NCc2nnn(CCCNCCCNC3CCCCC3)n2)n1` [Compound 26], for which the IC50 on human CXCR4 is 50 to 100 nM. In addition, the EC50 in assay [1] was less than 50 nM.

On to `N[C@@H](CCC(=O)N1CCC(Nc2nc(NCc3cc(CCCNCCCNC4CCCCC4)on3)nc3ccccc23)CC1)C(=O)O` [Compound 29], for which the IC50 at human CXCR4 was less than 50 nM. For the same molecule, the EC50 in assay [1] was less than 50 nM.

In the case of `N[C@@H](CCC(=O)N1CCC(Nc2nc(NCc3coc(CCCNCCCNC4CCCCC4)n3)nc3ccccc23)CC1)C(=O)O` [Compound 30], the IC50 on human CXCR4 is less than 50 nM. Further, the EC50 in assay [1] was less than 50 nM.

For the molecule `N[C@@H](CCC(=O)N1CCC(Nc2nc(NCc3nc(CCCNCCCNC4CCCCC4)cs3)nc3ccccc23)CC1)C(=O)O` [Compound 31], on human CXCR4, the IC50 was in the range of 50 to 100 nM. In addition, in assay [1], the EC50 is less than 50 nM.

For `N[C@@H](CCC(=O)N1CCC(Nc2nc(NCc3nc(CCCNCCCNC4CCCCC4)co3)nc3ccccc23)CC1)C(=O)O` [Compound 32], the IC50 at human CXCR4 fell in the range of 50 to 100 nM. The EC50 in assay [1] was less than 50 nM.

Consider `N[C@@H](CCC(=O)N1CCC(Nc2nc(NCc3noc(CCCNCCCNC4CCCCC4)n3)nc3ccccc23)CC1)C(=O)O` [Compound 33], for which, at human CXCR4, the IC50 is 50 to 100 nM. Moreover, the EC50 in assay [1] was 50 to 150 nM.
